Test results: US6562954B1, “Method for producing oligosaccharide, and novel oligosaccharide and pharmaceutical composition containing the same” (Seikagaku Corporation, priority 1999, dated 2003)

B1: OVA: ovalbumin, positive control in the antigenicity test (protein, UniProt P01012 2-386, looked up)
Ovalbumin: GSIGAASMEFCFDVFKELKVHHANENIFYCPIAIMSALAMVYLGAKDSTRTQINKVVRFDKLPGFGDSIEAQCGTSVNVHSSLRDILNQITKPNDVYSFSLASRLYAEERYPILPEYLQCVKELYRGGLEPINFQTAADQARELINSWVESQTNGIIRNVLQPSSVDSQTAMVLVNAIVFKGLWEKAFKDEDTQAMPFRVTEQESKPVQMMYQIGLFRVASMASEKMKILELPFASGTMSMLVLLPDEVSGLEQLESIINFEKLTEWTSSNVMEERKIKVYLPRMKMEEKYNLTSVLMAMGITDVFSSSANLSGISSAESLKISQAVHAAHAEINEAGREVVGSAEAGVDAASVSEEFRADHPFLFCIKHIATNAVLFFGRCVSP

How the values were obtained:
guinea pig neutrophils = assay: Effect on O2− generation by guinea pig neutrophils induced by FMLP stimulation; format: cell-based; details: for relative inhibition rate to the control of O2− generation: 1 mg/ml, preincubation 37° C. 1 hour; for suppression of O2− generation by neutrophils (in words): 0.01 to 1 mg/ml
Protocol: A 0.2% aqueous solution of glycogen in physiological saline was autoclaved, and 20 ml of the solution was intraperitoneally administered to a Hartley female guinea pig. The animal was killed by exsanguination 16 hours later, 20 ml of physiological saline containing 10 U/ml of heparin was injected into the abdominal cavity, and the peritoneal exudate was collected. The exudate was centrifuged at 1000 rpm for 10 minutes on a desk-top centrifugal machine, and purified water was added to the precipitate to cause hemolysis for 30 seconds. The solution was made isotonic again with Hank's balanced salt solution at 2-fold concentration, and centrifuged at 1000 rpm for 10 minutes. A procedure of resuspension of the precipitates in the Hank's balanced salt solution and centrifugation was repeated twice to obtain neutrophils. The obtained guinea pig neutrophils were suspended in Hank's balanced salt solution, and the leukocyte number was counted by a blood cell counter (Sysmex K-2000). A suspension diluted with Hank's balanced salt solution to 2×10^6 cells/ml was used for the experiment as a cell suspension.
1 ml of the-cell suspension and 10 μl of a solution of test substance at a known concentration (in a control, keratan sulfate oligosaccharide was not added) were mixed, preincubated at 37° C. for 1 hour, and 50 μl of 1.6 mM cytochrome C solution and 100 μl of 0.1 mM FMLP solution were successively added thereto and mixed. The mixture was incubated at 37° C. for 10 minutes, and the reaction was stopped by cooling with ice. The reaction mixture was centrifuged at 3000 rpm for 5 minutes, and absorbance of the supernatant was measured at a wavelength of 550 nm. All of the aforementioned procedures except for the incubation were performed with ice cooling.

normal mice = format: in vivo; details: for body weight thereafter: all mice, 2,000 mg/kg i.v. once, after the next day up to 14 days; for body weight on the next day of the administration: male mice, 2,000 mg/kg i.v. once; for general condition immediately after the administration: mice, 2,000 mg/kg i.v. once; for death: mice, male and female groups, 2,000 mg/kg i.v. once, observed 14 days
Protocol: From the above results, the least fatal dose of K4 and G4L4 for single intravenous administration is considered to be 2,000 mg/kg or higher. Therefore, LD50 of K4 and G4L4 for single intravenous administration exceeds 2,000 mg/kg for both of male and female mice.

Guinea pigs = assay: Test for antigenicity in guinea pigs (active systemic anaphylaxis); format: in vivo; details: sensitized s.c., induced i.v.
Protocol: Guinea pigs were sensitized by 3 times of subcutaneous administration of K4 or G4L4 alone or an emulsion of K4 with an immunostimulant, Freund's complete adjuvant (FCA). K4 or G4L4 was intravenously administered to the animals 12 days after the final sensitization to induce active systemic anaphylaxis. As a positive control, a similar test was performed for ovalbumin (OVA).
The results of the above test were shown in Table 1 together with the doses of the test substances. […] From the above results, K4 and G4L4 are not considered to induce active systemic anaphylaxis in guinea pigs.

Molecule	relative inhibition rate to the control of O2− generation (guinea pig neutrophils)	suppression of O2− generation by neutrophils (in words) (guinea pig neutrophils)	body weight thereafter (normal mice)	body weight on the next day of the administration (normal mice)	general condition immediately after the administration (normal mice)	death (normal mice)	anaphylatic reaction after induction (Guinea pigs)
CC(=O)NC1C(O)OC(COS(=O)(=O)[O-])C(OC2OC(COS(=O)(=O)[O-])C(O)C(OC3OC(COS(=O)(=O)[O-])C(OC4OC(COS(=O)(=O)[O-])C(O)C(O)C4O)C(O)C3NC(C)=O)C2O)C1O.[Na+].[Na+].[Na+].[Na+] (centres unmarked) [Compound L4L4, reference compound]	50.6%	markedly suppressed	–	–	–	–	–
CC(=O)N[C@H]1[C@H](O[C@@H]2[C@@H](O)[C@H](O)O[C@H](COS(=O)(=O)[O-])[C@@H]2O)O[C@H](COS(=O)(=O)[O-])[C@@H](O)[C@@H]1O.[Na+].[Na+] [Compound K4, O-(2-Acetamido-2-deoxy-6-O-sulfo-β-D-glucopyranosyl)-(1→3)-O-6-O-sulfo-β-D-galactopyranose Disodium Salt]	44.7%	markedly suppressed	favorable body weight increase	slight weight loss	paralytic gait was observed for every mouse	No death was observed	No anaphylatic reaction was observed
CC(=O)N[C@@H]1[C@@H](O)[C@H](O[C@@H]2O[C@H](COS(=O)(=O)[O-])[C@H](O)[C@H](O[C@@H]3O[C@H](COS(=O)(=O)[O-])[C@@H](O)[C@H](O)[C@H]3NC(C)=O)[C@H]2O)[C@@H](COS(=O)(=O)[O-])O[C@H]1O.[Na+].[Na+].[Na+] [Compound G4L4, O-(2-Acetamido-2-deoxy-6-O-sulfo-β-D-glucopyranosyl)-(1→3)-O-(6-O-sulfo-β-D-galactopyranosyl)-(1→4)-O-2-acetamido-2-deoxy-6-O-sulfo-β-D-glucopyranose Trisodium Salt]	57.1%	markedly suppressed	favorable body weight increase	slight weight loss	paralytic gait was observed for every mouse	No death was observed	No anaphylatic reaction was observed
B1	–	–	–	–	–	–	showed anaphylatic reaction
